Assay results: patent US20060148732A1, “Inhibition of NF-kappaB by triterpene compositions” (priority 2000, published 2006)

What was measured:
[1] = Stability in solution during purification; format: physicochemical; settings: dilute acid solutions vs water at 40° C.
Description: The fraction D (45% D1) from the PFP Prep column was first fractionated on a Waters C-18 column (25×100 mm). The mobile phase was 61% methanol in water with 0.1% TFA. […] A sample of D1 with 100% chromatographic purity (FIG. 35) was produced by further fractionation of the impure D1 on YMC C18-Aq column with 33% acetonitrile/water with 0.1% TFA as the mobile phase. […] Therefore, 0.1% TFA was included in solvents during the purification of D1.

PARP in Jurkat cells = test: Immunoblot analysis of PARP degradation; format: cell-based, human; settings: 2 μg/ml
Experimental: Apoptosis induced by F035 & D1 was examined by proteolytic cleavage of poly (ADP-ribose) polymerase (PARP). Jurkat cells (2×10^6/ml) were treated with F035 (2 μg/ml) and D1 (2 μg/ml) for different lengths of time. Cell lysates were prepared in buffer containing 20 mM HEPES, 250 mM NaCl, 2 mM EDTA, 0.1% NP-40, 2 μg/ml leupeptin, 2 μg/ml aprotinin, 0.5 μg/ml benzamidine, 1 mM DTT and 1 mM PMSF. Cellular proteins (60 μg/ml) were separated on a 7.5% SDS polyacrylamide gel and electrotransferred onto a nitrocellulose membrane. The membrane was probed first with monclonal anti-PARP antibody (PharMingen) and then with anti-mouse antibody conjugated to horse radish peroxidase (HRPO). Protein bands were detected by chemiluminescense (ECL, Amersham). The extent of cleavage of the 116-kDa PARP into 85-kDa and 41-kDa peptide products was used as a measure of apoptosis (Tewari et al., 1995).
Immunoblot Analysis of PARP Degradation. Induction of apoptosis was also examined by proteolytic cleavage of PARP (Nicholson and Thornberry, 1997). Jurkat cells (3×10^6) were treated with 2 μg/ml of F094, avicin D, or avicin G at 37° C. Cell lysates were prepared in a buffer containing 20 mM HEPES, 250 mM NaCl, 2 mM EDTA, 0.1% NP-40, 2 μg/ml leupeptin, 2 μg/ml aprotinin, 0.5 μg/ml benzamidine, 1 mM DTT, and 1 mM PMSF. Cellular proteins (60 μg/ml) were separated on a 7.5% SDS polyacrylamide gel and electrotransferred onto a nitrocellulose membrane. The membrane was probed first with monoclonal anti-PARP antibody (Pharmingen) and then with anti-mouse antibody conjugated to horseradish peroxidase (HRPO). Protein bands were detected by chemiluminescence (ECL). The appearance of an 85 kDa cleavage product was used as a measure of apoptosis.

COX-2 in RAW 264.7 cells = test: LPS-induced COX-2 expression (western blot); format: cell-based; settings: RAW264.7; 2 μg/ml 16 h; LPS 100 ng/ml
Experimental: Induction and Measurement of iNOS and COX-2. RAW 264.7 cells (0.5×10^6/ml) were plated in 100 mm dishes and treated with F094 or monoterpene/triterpene glycosides (2 μg/ml) for 16 h. Next, the cells were exposed to 100 ng/ml of LPS for 24 h. Cells were lysed in a buffer containing 50 mM Tris, pH 7.4, 100 mM NaCl, 0.5% NP-40, 10 μg/ml leupeptin, 5 μg/ml aprotinin, and 100 μM PMSF. 70 μg of cellular protein were then loaded on a 7.5% SDS-polyacrylamide gel and electrotransferred onto a nitrocellulose membrane. Levels of iNOS and COX-2 were analyzed by Western blot analysis using rabbit anti-iNOS (Santa Cruz) and goat anti-COX-2 antibodies respectively.

NF-κB = target: T1, NF-κB (Homo sapiens, UniProt P19838+Q04206); test: In vitro NF-κB DNA binding (EMSA on extracts); format: biochemical
T1 construct: endogenous in cells; host or cells: Jurkat cells stimulated with TNF; nuclear extract
Experimental: (underline indicates NF-κB binding sites) for 15 min at 37° C. The incubation mixture included 3 μg of poly (dI:dC) in a binding buffer (25 mM HEPES, pH 7.9, 0.5 mM EDTA, 0.5 mM DTT, 1% NP-40, 5% glycerol, 50 mM NaCl). The DNA-protein complex was separated from the free oligonucleotide on a 7.5% polyacrylamide gel. The specificity of NF-κB-DNA binding was examined by competition with a double stranded mutated oligonucleotide, unlabeled oligonucleotide and by supershift of the band by anti-p65 antibody. The radioactive bands from dried gels were visualized on a PhosphoImager (Molecular Dynamics, Sunnyvale, Calif.) and quantitated using ImageQuant Software.
Monoterpene/triterpene glycoside G Inhibits NF-κB-DNA Binding. […] Therefore, the inventors analyzed the effect of monoterpene/triterpene glycoside G1 on the ability of active NF-κB to bind to DNA in a cell-free system. Nuclear extracts from TNF-stimulated cells were incubated with increasing concentrations of monoterpene/triterpene glycoside G1. […] Deoxycholate (DOC) is known to dissociate NF-κB from IκB, thereby making it available in an active nuclear form.

[2] = tested on: p65 subunit of NF-κB in Jurkat cells; test: Western blot of nuclear translocation of p65; format: cell-based, human; settings: 2 μg/ml 16 hours, TNF 1 nM
Experimental: (§1) Western Blot Analysis. Cytoplasmic and nuclear extracts of Jurkat cells treated with monoterpene/triterpene glycoside G1 were used to study the degradation of IκB and nuclear translocation of the p65 subunit of NF-κB respectively. Then, 50 μg of the cytoplasmic or nuclear protein were resolved on a 9% SDS-polyacrylamide gel and electrotransferred onto a nitrocellulose membrane. The membranes were probed with rabbit anti-IκBα or rabbit anti-p65 antibody (Santa Cruz, Calif.) followed with anti-rabbit antibody conjugated to horseradish peroxidase (HRPO). Protein bands were detected by chemiluminescence (ECL, Amersham).

[3] = tested on: mitochondrial fraction of Jurkat cells; test: Cytochrome c release in a cell free system; format: biochemical, human; settings: isolated mitochondria
Experimental: Isolation of the Submitochondrial Fraction. Jurkat cells (1.5-2.0×10^7) were suspended in 1 ml sucrose buffer (250 mM sucrose in 30 mM Tris-HCl pH 7.4) and transferred into an N2 cavitation chamber (PARR Instruments Company, Moline, Ill.). The cells were subjected to N2 cavitation (300 psi for 5 min) as per the manufacturer's instructions. Under these conditions most of the cell membrane was disrupted with no change in the mitochondrial respiratory activity. Next, DNA and the nuclear fraction were removed by centrifugation (1500 g, 30 sec). The supernatant was further centrifuged (16000 g, 10 min) and the pellet was used as the submitochondrial fraction.
To observe if monoterpene/triterpenoid saponins directly affected mitochondria to induce apoptosis, experiments were carried out using avicin G in a cell free system. Mitochondria were isolated from Jurkat cells by the N2 cavitation method.

IκBα in Jurkat cells = test: Western blot of IκBα degradation; format: cell-based, human; settings: 2 μg/ml 16 hours, TNF 1 nM
Experimental: as §1

T1 sequence (Q04206 whole entry): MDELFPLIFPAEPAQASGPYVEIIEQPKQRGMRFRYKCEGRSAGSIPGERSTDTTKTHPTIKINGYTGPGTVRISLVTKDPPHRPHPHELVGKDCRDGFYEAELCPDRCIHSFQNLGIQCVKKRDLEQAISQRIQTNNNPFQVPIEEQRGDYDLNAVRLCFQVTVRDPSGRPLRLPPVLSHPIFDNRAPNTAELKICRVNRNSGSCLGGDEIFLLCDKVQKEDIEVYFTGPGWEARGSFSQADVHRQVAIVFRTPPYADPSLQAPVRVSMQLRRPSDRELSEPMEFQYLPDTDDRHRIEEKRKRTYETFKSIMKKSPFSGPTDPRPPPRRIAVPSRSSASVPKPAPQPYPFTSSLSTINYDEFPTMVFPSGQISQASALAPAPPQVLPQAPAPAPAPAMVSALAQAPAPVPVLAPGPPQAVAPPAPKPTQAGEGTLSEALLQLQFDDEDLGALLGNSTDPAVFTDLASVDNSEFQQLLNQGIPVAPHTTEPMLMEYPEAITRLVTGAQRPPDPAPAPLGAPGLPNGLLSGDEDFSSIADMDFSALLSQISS
T1 sequence (P19838 1-433 limits assumed): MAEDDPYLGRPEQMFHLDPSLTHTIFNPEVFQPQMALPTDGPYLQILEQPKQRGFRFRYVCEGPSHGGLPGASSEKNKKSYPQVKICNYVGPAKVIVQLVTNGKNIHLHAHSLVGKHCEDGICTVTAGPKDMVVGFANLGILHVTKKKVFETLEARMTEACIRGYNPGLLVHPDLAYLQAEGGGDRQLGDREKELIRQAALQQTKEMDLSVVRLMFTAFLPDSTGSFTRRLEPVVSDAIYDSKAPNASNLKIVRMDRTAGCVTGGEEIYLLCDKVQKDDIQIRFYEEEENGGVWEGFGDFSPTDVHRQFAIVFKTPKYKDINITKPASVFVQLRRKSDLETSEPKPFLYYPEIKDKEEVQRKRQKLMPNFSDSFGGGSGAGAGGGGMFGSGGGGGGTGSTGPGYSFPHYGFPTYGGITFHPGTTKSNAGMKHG

| Structure (SMILES) | stability in solution [1] | time to (almost) complete cleavage of PARP (PARP in Jurkat cells) | levels of LPS-induced COX-2 (COX-2 in RAW 264.7 cells) | DNA binding of DOC (0.8%) activated NF-κB (NF-κB; cytoplasmic extracts of treated cells) | binding of NF-κB to DNA (NF-κB; nuclear extracts from TNF-stimulated cells, 30 min at 37° C.) | nuclear translocation of p65 subunit [2] | peak of cytochrome c release ([3]; 2 μg/ml) | start of cytochrome c release ([3]; 2 μg/ml) | concentration achieving most of the cytochrome c release ([3]; 10 min) | pattern of IκB degradation (IκBα in Jurkat cells) |
| --- | --- | --- | --- | --- | --- | --- | --- | --- | --- | --- |
| C=C[C@](C)(O)CC/C=C(\CO)C(=O)O[C@H]1[C@H](O)[C@@H](O)[C@H](O[C@@](C)(C=C)CC/C=C(\CO)C(=O)O[C@H]2C[C@]3(C(=O)O[C@@H]4O[C@H](CO)[C@@H](O)[C@H](O)[C@H]4O[C@@H]4O[C@@H](C)[C@H](O[C@@H]5O[C@@H](CO)[C@H](O)[C@H]5O)[C@@H](O[C@@H]5O[C@H](CO)[C@@H](O)[C@H](O)[C@H]5O)[C@H]4O)[C@H](O)C[C@]4(C)C(=CC[C@@H]5[C@@]6(C)CC[C@H](O[C@@H]7O[C@H](CO[C@@H]8O[C@H](C)[C@H](O)[C@H](O)[C@H]8O[C@@H]8OC[C@@H](O)[C@H](O)[C@H]8O)[C@@H](O)[C@H](O)[C@H]7NC(C)=O)C(C)(C)[C@@H]6CC[C@]54C)[C@@H]3CC2(C)C)O[C@@H]1C [Fraction D1] | more stable in dilute acid solutions than in water | 8 to 16 h | – | – | – | – | – | – | – | – |
| C=C[C@](C)(O)CC/C=C(\C)C(=O)O[C@H]1[C@H](O)[C@@H](O)[C@H](O[C@@](C)(C=C)CC/C=C(\CO)C(=O)O[C@H]2C[C@]3(C(=O)O[C@@H]4O[C@H](CO)[C@@H](O)[C@H](O)[C@H]4O[C@@H]4O[C@@H](C)[C@H](O[C@@H]5O[C@@H](CO)[C@H](O)[C@H]5O)[C@@H](O[C@@H]5O[C@H](CO)[C@@H](O)[C@H](O)[C@H]5O)[C@H]4O)[C@H](O)C[C@]4(C)C(=CC[C@@H]5[C@@]6(C)CC[C@H](O[C@@H]7O[C@H](CO[C@@H]8O[C@H](C)[C@H](O)[C@H](O)[C@H]8O[C@@H]8OC[C@@H](O)[C@H](O)[C@H]8O)[C@@H](O)[C@H](O)[C@H]7NC(C)=O)C(C)(C)[C@@H]6CC[C@]54C)[C@@H]3CC2(C)C)O[C@@H]1C [Fraction G1] | – | ≤ 4 h | decreases the levels of LPS-induced iNOS and COX-2 sharply | decreased DNA binding | inhibited the binding of NF-κB to DNA in a dose-dependent manner | slows down nuclear translocation of the p65 subunit considerably | 5 to 10 min | a minute | 0.5 to 2.0 µg/mL | no difference |
